Patent publication US12509424B2, “Compound and composition as PDGF receptor kinase inhibitor” (NIPPON SHINYAKU CO., LTD., priority 2019, dated 2025)

Columns and labels:
[1] = biological target: TEL-PDGFRβ fusion gene transfected cells (Ba/F3); test: Suppression of proliferation of TEL-PDGFRβ fusion gene transfected Ba/F3 cells; format: cell-based, human; details: TEL-PDGFRβ expressing Ba/F3 cells, 72 hours, final concentration 0.1 to 10,000 nM; read-out: PDGFR β/BaF3 proliferation inhibition (IC50)
Source text: 2. Preparation of Test Substance
4. Analysis of Measurement Results

[2] = biological target: TEL-KIT fusion gene transfected cells (Ba/F3); test: Suppression of proliferation of TEL-KIT fusion gene transfected Ba/F3 cells; details: read-out: KIT/BaF3 proliferation inhibition (IC50); TEL-KIT expressing Ba/F3 cells, 72 hours, final concentration 0.1 to 10,000 nM;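 note: viable cells quantified via formazan from tetrazolium reduction, inhibition scaled with 0.1% DMSO control as 0% and medium-only blank as 100%, IC50 from two-parameter logistic fit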
[3] = biological target: PDGFR-β (Homo sapiens (Human), UniProt P09619); test: PDGFR-β tyrosine kinase inhibitory action (HTRF KinEASE-TK); format: biochemical; details: PDGFR-β enzyme 1 ng/μL, 30° C. for 30 minutes; read-out: PDGF-β IC50
How it was run: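 Recombinant PDGFR-β at 1 ng/μL final with TK substrate-3-biotin in a substrate solution containing 0.6 μM ATP; buffer 50 mM HEPES pH 7.0, 5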

[4] = test system: pulmonary arterial smooth muscle cells; test: Suppression of proliferation of pulmonary arterial smooth muscle cells (PDGF-BB stimulation, BrdU); format: cell-based; details: PASMC, 24 h; healthy human derived pulmonary arterial smooth muscle cells; human PDGF-BB 10 ng/mL stimulation; BrdU uptake after 1 day; test substance final concentration 3 to 10,000 nM; read-out: Human normal PASMC proliferation suppression (PDGF stimulation_IC50)
How it was run: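 Test compound (final 3 to 10,000 nM) was added together with BrdU and PDGF-BB (final 10 ng/mL) to healthy human pulmonary artery smooth muscle cells held a day in 0.1% FBS. Proliferation was read after 1 day as anti-BrdU-detected BrdU incorporation.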

Sequence of TEL-PDGFRβ fusion gene transfected cells (Ba/F3) (P09619 33-1106 limits assumed, change not shown): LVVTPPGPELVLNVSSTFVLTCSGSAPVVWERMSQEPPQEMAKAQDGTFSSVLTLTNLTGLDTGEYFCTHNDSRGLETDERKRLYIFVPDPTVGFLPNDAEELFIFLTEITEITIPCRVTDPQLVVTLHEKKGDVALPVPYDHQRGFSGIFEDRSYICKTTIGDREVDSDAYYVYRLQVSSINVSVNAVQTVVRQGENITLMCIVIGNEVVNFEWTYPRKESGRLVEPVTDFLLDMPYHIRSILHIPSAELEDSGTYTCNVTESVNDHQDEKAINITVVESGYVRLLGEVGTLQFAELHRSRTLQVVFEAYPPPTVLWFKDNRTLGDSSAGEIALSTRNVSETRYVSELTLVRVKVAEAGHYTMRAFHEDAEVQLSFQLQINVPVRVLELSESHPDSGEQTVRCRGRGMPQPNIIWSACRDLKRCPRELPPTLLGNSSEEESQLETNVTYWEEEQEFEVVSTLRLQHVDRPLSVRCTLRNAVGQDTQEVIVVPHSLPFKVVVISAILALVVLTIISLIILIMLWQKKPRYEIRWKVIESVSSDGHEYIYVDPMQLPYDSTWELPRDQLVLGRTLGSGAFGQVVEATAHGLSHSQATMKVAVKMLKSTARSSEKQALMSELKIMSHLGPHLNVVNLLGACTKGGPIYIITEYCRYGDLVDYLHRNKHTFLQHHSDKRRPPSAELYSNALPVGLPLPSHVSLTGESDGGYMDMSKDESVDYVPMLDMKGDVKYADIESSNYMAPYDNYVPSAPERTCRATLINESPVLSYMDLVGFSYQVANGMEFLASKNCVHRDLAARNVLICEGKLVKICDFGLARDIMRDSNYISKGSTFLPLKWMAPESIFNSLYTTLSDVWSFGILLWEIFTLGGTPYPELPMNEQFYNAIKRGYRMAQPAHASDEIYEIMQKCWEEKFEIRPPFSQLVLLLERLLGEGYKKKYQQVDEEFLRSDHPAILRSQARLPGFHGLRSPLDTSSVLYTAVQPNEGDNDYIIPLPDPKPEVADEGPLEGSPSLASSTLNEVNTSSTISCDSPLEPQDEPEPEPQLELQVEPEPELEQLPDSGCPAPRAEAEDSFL
Sequence of PDGFR-β (P09619 33-1106): as the sequence (P09619 33-1106 limits assumed, change not shown) above
Sequence of TEL-KIT fusion gene transfected cells (Ba/F3) (P10721 26-976 limits assumed, change not shown): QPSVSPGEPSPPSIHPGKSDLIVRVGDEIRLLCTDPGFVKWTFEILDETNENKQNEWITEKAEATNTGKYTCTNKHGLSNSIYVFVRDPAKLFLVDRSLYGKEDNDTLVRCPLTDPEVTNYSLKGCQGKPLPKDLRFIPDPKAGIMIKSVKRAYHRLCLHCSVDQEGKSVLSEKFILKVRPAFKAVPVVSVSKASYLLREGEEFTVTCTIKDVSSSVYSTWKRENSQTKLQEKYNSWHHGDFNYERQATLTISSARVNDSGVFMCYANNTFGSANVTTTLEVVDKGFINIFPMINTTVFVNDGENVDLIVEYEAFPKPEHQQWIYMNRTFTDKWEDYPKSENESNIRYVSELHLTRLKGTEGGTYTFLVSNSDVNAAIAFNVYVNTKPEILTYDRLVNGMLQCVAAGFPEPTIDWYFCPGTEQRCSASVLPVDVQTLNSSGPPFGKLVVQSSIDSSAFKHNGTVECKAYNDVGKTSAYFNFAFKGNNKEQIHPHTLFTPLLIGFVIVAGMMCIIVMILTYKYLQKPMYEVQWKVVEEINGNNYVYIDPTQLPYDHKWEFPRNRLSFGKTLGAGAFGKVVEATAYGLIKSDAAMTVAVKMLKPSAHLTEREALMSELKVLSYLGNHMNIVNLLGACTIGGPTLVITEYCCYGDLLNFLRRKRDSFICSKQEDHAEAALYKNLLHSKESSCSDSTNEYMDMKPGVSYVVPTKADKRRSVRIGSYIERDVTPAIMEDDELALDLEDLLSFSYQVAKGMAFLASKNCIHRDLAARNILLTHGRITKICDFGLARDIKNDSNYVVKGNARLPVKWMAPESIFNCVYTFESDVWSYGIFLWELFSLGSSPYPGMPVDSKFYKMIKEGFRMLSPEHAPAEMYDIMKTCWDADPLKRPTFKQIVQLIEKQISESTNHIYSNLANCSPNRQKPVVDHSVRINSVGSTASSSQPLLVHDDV

Row | Structure (SMILES) | IC50 [1] [nM] | IC50 [2] [nM] | IC50 [3] [nM] | IC50 [4] [nM]
1 | Cc1ccc(C(=O)N[C@H]2CCCC[C@@H]2O)cc1NCc1cncc(-c2ccc(N)cc2)c1 [Example 99, 3-({[5-(4-aminophenyl)pyridin-3-yl]methyl}amino)-N-[(1S,2S)-2-hydroxycyclohexyl]-4-methylbenzamide] | 0.5 | 480 | 13 | 27
2 | Cc1ccc(C(=O)N[C@H]2CCCC[C@@H]2O)cc1NCc1cncc(-c2cc(F)cc(F)c2)c1 [Example 100, 3-({[5-(3,5-difluorophenyl)pyridin-3-yl]methyl}amino)-N-[(1S,2S)-2-hydroxycyclohexyl]-4-methylbenzamide] | 17 | 8900 | 32 | 71
3 | Cc1ccc(C(=O)N[C@H]2CCCC[C@@H]2O)cc1NCc1cncc(-c2ccccc2)n1 [Example 101, N-[(1S,2S)-2-hydroxycyclohexyl]-4-methyl-3-{[(6-phenylpyrazin-2-yl)methyl]amino}benzamide] | 56 | 9000 | 170 | 71
4 | Cc1ccc(C(=O)N[C@H]2CCCC[C@@H]2O)cc1NCc1cncc(-c2cccs2)c1 [Example 102, N-[(1S,2S)-2-hydroxycyclohexyl]-4-methyl-3-({[5-(thiophen-2-yl)pyridin-3-yl]methyl}amino)benzamide] | 2 | 620 | 23 | 30
5 | Cc1ccc(C(=O)N[C@H]2CCCC[C@@H]2O)cc1NCc1cncc(-c2ccsc2)c1 [Example 103, N-[(1S,2S)-2-hydroxycyclohexyl]-4-methyl-3-({[5-(thiophen-3-yl)pyridin-3-yl]methyl}amino)benzamide] | 4.1 | 2500 | 50 | 40
6 | Cc1ccc(C(=O)N[C@H]2CCCC[C@@H]2O)cc1NCc1cnn2ccsc12 [Example 105, N-[(1S,2S)-2-hydroxycyclohexyl]-4-methyl-3-{[(pyrazolo[5,1-b][1,3]thiazol-7-yl)methyl]amino}benzamide] | 4.7 | 920 | 230 | 28
7 | Cc1ccc(C(=O)N[C@H]2CCCC[C@@H]2O)cc1NCc1cnc2ccsc2c1 [Example 108, N-[(1S,2S)-2-hydroxycyclohexyl]-4-methyl-3-{[(thieno[3,2-b]pyridin-6-yl)methyl]amino}benzamide] | 2.3 | 300 | 51 | 85
8 | Cc1ccc(C(=O)N[C@H]2CCCC[C@@H]2O)cc1NCc1cnn(-c2ccccn2)c1 [Example 112, N-[(1S,2S)-2-hydroxycyclohexyl]-4-methyl-3-({[1-(pyridin-2-yl)-1H-pyrazol-4-yl]methyl}amino)benzamide] | 1.3 | 250 | 39 | 26
9 | Cc1ccc(C(=O)N[C@H]2CCCC[C@@H]2O)cc1NCc1cnc(N)nc1 [Example 113, 3-{[(2-aminopyrimidin-5-yl)methyl]amino}-N-[(1S,2S)-2-hydroxycyclohexyl]-4-methylbenzamide] | 0.2 | 700 | 83 | 51
10 | Cc1ccc(C(=O)N[C@H]2CCCC[C@@H]2O)cc1NCc1cnc(NC2CC2)nc1 [Example 114, 3-({[2-(cyclopropylamino)pyrimidin-5-yl]methyl}amino)-N-[(1S,2S)-2-hydroxycyclohexyl]-4-methylbenzamide] | 2.7 | 960 | 270 | 190
11 | Cc1ccc(C(=O)N[C@H]2CCCC[C@@H]2O)cc1NCc1cncc(-c2cnccn2)c1 [Example 115, N-[(1S,2S)-2-hydroxycyclohexyl]-4-methyl-3-({[5-(pyrazin-2-yl)pyridin-3-yl]methyl}amino)benzamide] | 1.4 | 1700 | 260 | 290
12 | Cc1ccc(C(=O)N[C@@H](CO)[C@@H](O)c2ccccc2)cc1CNc1cncc(Br)c1 [Example 152, 3-{[(5-bromopyridin-3-yl)amino]methyl}-N-[(1S,2S)-1,3-dihydroxy-1-phenylpropan-2-yl]-4-methylbenzamide] | 100 | > 10000 | 50 | 82
13 | Cc1ccc(C(=O)N[C@@H](CO)[C@@H](O)c2ccccc2)cc1CNc1cncc(-c2ccccc2)c1 [Example 153, N-[(1S,2S)-1,3-dihydroxy-1-phenylpropan-2-yl]-4-methyl-3-{[(5-phenylpyridin-3-yl)amino]methyl}benzamide] | 27 | 7000 | 88 | 62

Further lines, with some results ahead:

Row | IC50 [1] [nM] | IC50 [2] [nM] | IC50 [3] [nM] | Structure (SMILES) | IC50 [4] [nM]
14 | 3.4 | 3400 | 260 | O=C(N[C@H]1CCCC[C@@H]1O)c1ccc(Cl)c(NCc2cncc(-c3ncccn3)c2)c1 [Example 104, 4-chloro-N-[(1S,2S)-2-hydroxycyclohexyl]-3-({[5-(pyrimidin-2-yl)pyridin-3-yl]methyl}amino)benzamide] | 38
15 | 2.1 | 1300 | 67 | Cc1c(F)cc(C(=O)N[C@H]2CCCC[C@@H]2O)cc1NCc1cncc(-c2ncccn2)c1 [Example 106, 3-fluoro-N-[(1S,2S)-2-hydroxycyclohexyl]-4-methyl-5-({[5-(pyrimidin-2-yl)pyridin-3-yl]methyl}amino)benzamide] | 140
16 | 19 | 1200 | 190 | Cc1ccc(C(=O)N[C@H]2CCCC[C@@H]2O)cc1NCc1cncc(-c2ncc(F)cn2)c1 [Example 107, 3-({[5-(5-fluoropyrimidin-2-yl)pyridin-3-yl]methyl}amino)-N-[(1S,2S)-2-hydroxycyclohexyl]-4-methylbenzamide] | 110
17 | 22 | 730 | 210 | Cc1ccc(C(=O)N[C@H]2CCCC[C@@H]2O)cc1CNc1cncc(-c2cccnc2)c1 [Example 146, 3-{[([3,3′-bipyridin]-5-yl)amino]methyl}-N-[(1S,2S)-2-hydroxycyclohexyl]-4-methylbenzamide] | 44
18 | 5.6 | 100 | 24 | Cc1ccc(C(=O)N[C@H]2CCCC[C@@H]2O)cc1CNc1cncc(-c2ncccn2)c1 [Example 147, N-[(1S,2S)-2-hydroxycyclohexyl]-4-methyl-3-({[5-(pyrimidin-2-yl)pyridin-3-yl]amino}methyl)benzamide] | 52
19 | 2.4 | 170 | 16 | Cc1ccc(C(=O)N[C@H]2CCCC[C@@H]2O)cc1CNc1cncc(-c2ccccn2)c1 [Example 148, 3-{[([2,3′-bipyridin]-5′-yl)amino]methyl}-N-[(1S,2S)-2-hydroxycyclohexyl]-4-methylbenzamide] | 110
20 | 58 | 670 | 220 | Cc1ccc(C(=O)N[C@@H]2CCCC[C@H]2O)cc1CNc1cncc(-c2ncccn2)c1 [Example 149, N-[(1R,2R)-2-hydroxycyclohexyl]-4-methyl-3-({[5-(pyrimidin-2-yl)pyridin-3-yl]amino}methyl)benzamide] | 150
